Structures can show the parent of a compound that is named as a salt.
How the values were obtained:
[1] = test system: experimental allergic rhinitis models; experiment: experimental allergic rhinitis models; type: in vivo; conditions: for side-effects: compared with expectation; for reduction in the watery secretion: compared with what is typical for anticholinergic agents
[2] = test system: animal models of asthma and rhinitis; experiment: animal models of asthma and rhinitis; conditions: in vivo
[3] = in vivo, po
water solubility = type: physicochemical

SMILES	side-effects [1]	reduction in the watery secretion [1]	effectiveness in animal models of asthma and rhinitis [2]	emesis and signs of nausea [3]	water solubility (water solubility)
C[N+]1(C)CCC(OC(=O)C(O)(c2ccccc2)C2CCCC2)C1 (racemic) [glycopyrrolate]	lower side-effects than expected	longer-lasting reduction in the watery secretion	–	–	–
O=C(Nc1c(Cl)cncc1Cl)C(=O)c1cn(Cc2ccc(F)cc2)c2ccc(O)cc12 [AWD 12-281]	–	–	highly effective	devoid of emesis and signs of nausea	–
C[N+]1(C)CC[C@@H](OC(=O)[C@](O)(c2ccccc2)C2CCCC2)C1.[Br-] (single isomer, unassigned) [R,R-isomer, R,R-glycopyrrolate]	lower side-effects than expected	longer-lasting reduction in the watery secretion	–	–	–
CN1CCCC(n2nc(Cc3ccc(Cl)cc3)c3ccccc3c2=O)CC1 (stereo not shown) [azelastine hydrochloride]	–	–	–	–	sufficient
